Patent US20250136606A1, “MODULATORS OF TRPML, THEIR COMPOSITIONS AND METHODS OF USE” (Caraway Therapeutics, Inc., priority 2021, published 2025)
Where two headings read alike, the source gives them in different places.

Assays:
Format in all cases: cell-based
[1] = target: T1, TRPML2 (Homo sapiens, UniProt Q8IZK6); assay: Fluorescent TRPML2 assay (performed as for TRPML1, substituting the TRPML2 subtype)
T1 construct: expressed in transfected cells
T1 sequence (Q8IZK6 1-566): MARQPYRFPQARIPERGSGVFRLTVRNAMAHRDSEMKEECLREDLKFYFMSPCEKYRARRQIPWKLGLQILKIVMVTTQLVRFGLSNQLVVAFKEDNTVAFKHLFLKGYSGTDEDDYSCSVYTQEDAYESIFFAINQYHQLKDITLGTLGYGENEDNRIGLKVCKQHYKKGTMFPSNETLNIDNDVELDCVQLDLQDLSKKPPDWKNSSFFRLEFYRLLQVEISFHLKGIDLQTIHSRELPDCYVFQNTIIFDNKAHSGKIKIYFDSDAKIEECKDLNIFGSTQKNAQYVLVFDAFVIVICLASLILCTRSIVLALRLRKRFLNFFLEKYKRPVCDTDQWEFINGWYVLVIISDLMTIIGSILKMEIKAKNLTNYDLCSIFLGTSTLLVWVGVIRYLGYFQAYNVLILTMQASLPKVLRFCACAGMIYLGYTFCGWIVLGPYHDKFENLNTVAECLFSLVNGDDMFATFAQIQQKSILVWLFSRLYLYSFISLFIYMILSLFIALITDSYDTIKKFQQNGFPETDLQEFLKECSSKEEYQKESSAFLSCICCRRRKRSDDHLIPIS
Method in brief: (§1)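 HEK-293 Trex cells with doxycycline-induced (0.5 ug/mL) surface-directed human TRPML subtype, loaded with 1 μM Fluo4-AM, resuspended in Ringer's with 10 mM calcium. Compounds at 20 μM to 6 nM final in half-log steps, triplicate; fluorescence ex 480/em 540; EC50 by non-linear regression versus plate controls.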

[2] = target: T2, TRPML3 (Homo sapiens, UniProt Q8TDD5); assay: Fluorescent TRPML3 assay (performed as for TRPML1, substituting the TRPML3 subtype)
T2 construct: expressed in transfected cells
T2 sequence (Q8TDD5 1-553): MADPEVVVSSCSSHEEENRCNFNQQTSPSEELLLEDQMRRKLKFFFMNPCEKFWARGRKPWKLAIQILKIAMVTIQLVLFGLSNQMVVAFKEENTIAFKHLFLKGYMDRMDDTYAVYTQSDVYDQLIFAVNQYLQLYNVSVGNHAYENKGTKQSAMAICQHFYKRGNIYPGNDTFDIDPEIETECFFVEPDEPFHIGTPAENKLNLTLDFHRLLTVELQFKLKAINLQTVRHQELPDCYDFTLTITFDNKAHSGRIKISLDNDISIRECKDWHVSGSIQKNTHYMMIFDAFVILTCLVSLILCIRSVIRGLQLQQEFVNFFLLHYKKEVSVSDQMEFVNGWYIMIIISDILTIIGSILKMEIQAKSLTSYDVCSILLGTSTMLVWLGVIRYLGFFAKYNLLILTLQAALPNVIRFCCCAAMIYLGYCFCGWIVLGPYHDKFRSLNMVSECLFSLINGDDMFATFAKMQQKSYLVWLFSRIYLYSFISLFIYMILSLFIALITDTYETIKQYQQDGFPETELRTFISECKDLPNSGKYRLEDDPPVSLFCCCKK
Method in brief: as §1

[3] = target: TRPML1 (Homo sapiens, UniProt Q9GZU1); assay: Fluorescent TRPML1 assay (Fluo4-AM calcium fluorescence in doxycycline-induced HEK-293 Trex cells)
Method in brief: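 First, expression of surface-targeted mutant human TRPML1 is induced in HEK-293 Trex cells with 0.5 ug/mL doxycycline the day before. Next, cells take up 1 micromolar Fluo4-AM in Ringer's with 0.1% Pluronic. Finally, they are added to compounds (6 nanomolar–20 micromolar final) in 10 mM calcium Ringer's and fluorescence is read.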

Sequence of TRPML1 (Q9GZU1 whole entry L15A/L16A/L577A/L578A, form open): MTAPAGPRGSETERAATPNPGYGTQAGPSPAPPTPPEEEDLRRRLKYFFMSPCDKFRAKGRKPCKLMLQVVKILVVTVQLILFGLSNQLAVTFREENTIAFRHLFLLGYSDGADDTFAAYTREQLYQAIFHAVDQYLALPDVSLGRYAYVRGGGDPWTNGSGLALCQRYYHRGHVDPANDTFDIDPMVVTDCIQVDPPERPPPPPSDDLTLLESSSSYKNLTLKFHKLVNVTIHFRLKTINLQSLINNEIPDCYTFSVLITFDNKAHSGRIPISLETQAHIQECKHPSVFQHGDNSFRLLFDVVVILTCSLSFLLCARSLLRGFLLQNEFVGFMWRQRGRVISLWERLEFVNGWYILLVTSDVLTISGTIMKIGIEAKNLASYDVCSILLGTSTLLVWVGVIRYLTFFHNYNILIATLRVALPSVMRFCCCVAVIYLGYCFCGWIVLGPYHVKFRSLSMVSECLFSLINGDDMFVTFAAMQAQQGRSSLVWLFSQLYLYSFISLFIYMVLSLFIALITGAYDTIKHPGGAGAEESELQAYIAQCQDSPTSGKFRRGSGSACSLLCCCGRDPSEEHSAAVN

SMILES: CCOC(=O)N1C[C@H](C)N(c2ncnc3c2c(-c2ccccn2)cn3-c2cccc(Cl)c2)C[C@H]1C [Compound 118, Ethyl (2R,5S)-4-(7-(3-chlorophenyl)-5-(pyridin-2-yl)-7H-pyrrolo[2,3-d]pyrimidin-4-yl)-2,5-dimethylpiperazine-1-carboxylate]
- EC50 ([1]; fluorescent calcium assay): > 2000 nM
- EC50 ([2]; fluorescent calcium assay): 500 to 2000 nM
- EC50 ([3]; fluorescent calcium assay): 100 to 500 nM

SMILES: C[C@H]1CN(C(=O)OC(C)(C)C)CCN1c1ncnc2c1c(CN1CCCC1)cn2-c1cccc(Cl)c1 [Compound 337, tert-butyl-(S)-4-(7-(3-chlorophenyl)-5-(pyrrolidin-1-ylmethyl)-7H-pyrrolo[2,3-d]pyrimidin-4-yl)-3-methylpiperazine-1-carboxylate]
- EC50 ([1]; fluorescent calcium assay): > 2000 nM
- EC50 ([2]; fluorescent calcium assay): 100 to 500 nM
- EC50 ([3]; fluorescent calcium assay): 500 to 2000 nM

SMILES: C[C@H]1CN(C(=O)OC(C)(C)C)CCN1c1ncnc2c1c(-c1cncnc1)cn2-c1cccc(C#N)c1 [Compound 328, tert-butyl (S)-4-(7-(3-cyanophenyl)-5-(pyrimidin-5-yl)-7H-pyrrolo[2,3-d]pyrimidin-4-yl)-3-methylpiperazine-1-carboxylate]
- EC50 ([1]; fluorescent calcium assay): > 2000 nM
- EC50 ([2]; fluorescent calcium assay): 100 to 500 nM
- EC50 ([3]; fluorescent calcium assay): 500 to 2000 nM

SMILES: C[C@H]1CN(C(=O)OC(C)(C)C)CCN1c1ncnc2c1c(N1CCC1)cn2-c1cccc(C#N)c1 [Compound 350, tert-butyl (S)-4-(5-(azetidin-1-yl)-7-(3-cyanophenyl)-7H-pyrrolo[2,3-d]pyrimidin-4-yl)-3-methylpiperazine-1-carboxylate]
- EC50 ([1]; fluorescent calcium assay): < 100 nM
- EC50 ([2]; fluorescent calcium assay): < 100 nM
- EC50 ([3]; fluorescent calcium assay): < 100 nM

SMILES: CCOC(=O)N1CCN(c2ncnc3c2c(-c2ccccc2F)cn3-c2cc(C#N)ccn2)[C@@H](C)C1 [Compound 346, ethyl (S)-4-(7-(4-cyanopyridin-2-yl)-5-(2-fluorophenyl)-7H-pyrrolo[2,3-d]pyrimidin-4-yl)-3-methylpiperazine-1-carboxylate]
- EC50 ([1]; fluorescent calcium assay): < 100 nM
- EC50 ([2]; fluorescent calcium assay): < 100 nM
- EC50 ([3]; fluorescent calcium assay): < 100 nM

SMILES: COc1ccnc(-n2cc(C3CC3)c3c(N4C[C@@H](C)N(C(=O)OC(C)(C)C)C[C@@H]4C)ncnc32)c1 [Compound 642, tert-butyl (2R,5S)-4-(5-cyclopropyl-7-(4-methoxypyridin-2-yl)-7H-pyrrolo[2,3-d]pyrimidin-4-yl)-2,5-dimethylpiperazine-1-carboxylate]
- EC50 [1]: 500 to 2000 nM
- EC50 [2]: 100 to 500 nM
- EC50 [3]: 100 to 500 nM

SMILES: CC(C)(C)OC(=O)N1CCN(c2ncnc3c2c(C2CC2)cn3-c2cc(C#N)ccn2)C(C)(C)C1 [Compound 421, tert-butyl 4-(7-(4-cyanopyridin-2-yl)-5-cyclopropyl-7H-pyrrolo[2,3-d]pyrimidin-4-yl)-3,3-dimethylpiperazine-1-carboxylate]
- EC50 ([1]; fluorescent calcium assay): < 100 nM
- EC50 ([2]; fluorescent calcium assay): < 100 nM
- EC50 ([3]; fluorescent calcium assay): 100 to 500 nM

SMILES: C[C@H]1CN(C(=O)OC(C)(C)C)CCN1c1ncnc2c1c(N1CCC1)cn2-c1cccc(F)c1 [Compound 636, tert-butyl (S)-4-(5-(azetidin-1-yl)-7-(3-fluorophenyl)-7H-pyrrolo[2,3-d]pyrimidin-4-yl)-3-methylpiperazine-1-carboxylate]
- EC50 [1]: < 100 nM
- EC50 [2]: < 100 nM
- EC50 [3]: < 100 nM

SMILES: COc1cc(-n2cc(C3CC3)c3c(N4CCN(C(=O)OC(C)(C)C)C[C@@H]4C)ncnc32)ccc1F [Compound 317, tert-butyl (S)-4-(5-cyclopropyl-7-(4-fluoro-3-methoxyphenyl)-7H-pyrrolo[2,3-d]pyrimidin-4-yl)-3-methylpiperazine-1-carboxylate]
- EC50 ([1]; fluorescent calcium assay): > 2000 nM
- EC50 ([2]; fluorescent calcium assay): 100 to 500 nM
- EC50 ([3]; fluorescent calcium assay): 500 to 2000 nM

SMILES: C[C@H]1CN(C(=O)OC(C)(C)C)CCN1c1ncnc2c1c(C1CC1)cn2[C@H]1CCC[C@@H](C#N)C1 [Compound 527, tert-butyl (S)-4-(7-(cis-3-cyanocyclohexyl)-5-cyclopropyl-7H-pyrrolo[2,3-d]pyrimidin-4-yl)-3-methylpiperazine-1-carboxylate]
- EC50 [1]: > 2000 nM
- EC50 [2]: 500 to 2000 nM
- EC50 [3]: 500 to 2000 nM

SMILES: C[C@@H]1CN(c2ncnc3c2c(-c2ccccc2F)cn3-c2ccccn2)[C@@H](C)CN1C(=O)OC(C)(C)C [Compound 134, tert-butyl (2R,5S)-4-(5-(2-fluorophenyl)-7-(pyridin-2-yl)-7H-pyrrolo[2,3-d]pyrimidin-4-yl)-2,5-dimethylpiperazine-1-carboxylate]
- EC50 ([1]; fluorescent calcium assay): 100 to 500 nM
- EC50 ([2]; fluorescent calcium assay): < 100 nM
- EC50 ([3]; fluorescent calcium assay): < 100 nM

SMILES: C[C@H]1CN(C(=O)OC(C)(C)C)CCN1c1ncnc2c1c(-c1ccccc1F)cn2-c1ncc(C#N)s1 [Compound 428, tert-butyl (S)-4-(7-(5-cyanothiazol-2-yl)-5-(2-fluorophenyl)-7H-pyrrolo[2,3-d]pyrimidin-4-yl)-3-methylpiperazine-1-carboxylate]
- EC50 ([1]; fluorescent calcium assay): < 100 nM
- EC50 ([2]; fluorescent calcium assay): < 100 nM
- EC50 ([3]; fluorescent calcium assay): < 100 nM

SMILES: C[C@@H]1CN(C(=O)OC(C)(C)C)CCN1c1ncnc2c1c(N1CCOCC1)cn2-c1cccc(Cl)c1 [Compound 229, tert-Butyl (R)-4-(7-(3-chlorophenyl)-5-morpholino-7H-pyrrolo[2,3-d]pyrimidin-4-yl)-3-methylpiperazine-1-carboxylate]
- EC50 ([1]; fluorescent calcium assay): 500 to 2000 nM
- EC50 ([2]; fluorescent calcium assay): 100 to 500 nM
- EC50 ([3]; fluorescent calcium assay): 500 to 2000 nM

SMILES: C[C@@H]1CN(c2ncnc3c2c(-c2ccccc2F)cn3-c2nccc(C#N)n2)[C@@H](C)CN1C(=O)OC(C)(C)C [Compound 460, tert-butyl (2R,5S)-4-(7-(4-cyanopyrimidin-2-yl)-5-(2-fluorophenyl)-7H-pyrrolo[2,3-d]pyrimidin-4-yl)-2,5-dimethylpiperazine-1-carboxylate]
- EC50 ([1]; fluorescent calcium assay): 100 to 500 nM
- EC50 ([2]; fluorescent calcium assay): < 100 nM
- EC50 ([3]; fluorescent calcium assay): < 100 nM

SMILES: CCN(CC)c1cn(-c2cccc(Cl)c2)c2ncnc(N3CCN(C(=O)OC(C)(C)C)[C@H](C)C3)c12 [Compound 375, tert-butyl (R)-4-(7-(3-chlorophenyl)-5-(diethylamino)-7H-pyrrolo[2,3-d]pyrimidin-4-yl)-2-methylpiperazine-1-carboxylate]
- EC50 ([1]; fluorescent calcium assay): 100 to 500 nM
- EC50 ([2]; fluorescent calcium assay): < 100 nM
- EC50 ([3]; fluorescent calcium assay): < 100 nM

SMILES: C[C@H]1CN(C(=O)OC(C)(C)C)CCN1c1ncnc2c1c(C1CCOCC1)cn2-c1cc(F)cc(F)c1 [Compound 468, tert-butyl (S)-4-(7-(3,5-difluorophenyl)-5-(tetrahydro-2H-pyran-4-yl)-7H-pyrrolo[2,3-d]pyrimidin-4-yl)-3-methylpiperazine-1-carboxylate]
- EC50 ([1]; fluorescent calcium assay): > 2000 nM
- EC50 ([2]; fluorescent calcium assay): 100 to 500 nM
- EC50 ([3]; fluorescent calcium assay): 100 to 500 nM

SMILES: C[C@H]1CN(C(=O)OC(C)(C)C)CCN1c1ncnc2c1c(-c1ccccc1F)cn2-c1cc(C#N)ccn1 [Compound 268, tert-butyl (S)-4-(7-(4-cyanopyridin-2-yl)-5-(2-fluorophenyl)-7H-pyrrolo[2,3-d]pyrimidin-4-yl)-3-methylpiperazine-1-carboxylate]
- EC50 ([1]; fluorescent calcium assay): < 100 nM
- EC50 ([2]; fluorescent calcium assay): < 100 nM
- EC50 ([3]; fluorescent calcium assay): < 100 nM

SMILES: C[C@H]1CN(C(=O)OC(C)(C)C)CCN1c1ncnc2c1c(C1CC1)cn2C12CCC(CC1)CC2 [Compound 364, tert-butyl (S)-4-(7-(bicyclo[2.2.2]octan-1-yl)-5-cyclopropyl-7H-pyrrolo[2,3-d]pyrimidin-4-yl)-3-methylpiperazine-1-carboxylate]
- EC50 ([1]; fluorescent calcium assay): 100 to 500 nM
- EC50 ([2]; fluorescent calcium assay): < 100 nM
- EC50 ([3]; fluorescent calcium assay): < 100 nM

SMILES: C[C@@H]1CN(c2ncnc3c2c(C(F)(F)F)cn3-c2cc(Cl)ccn2)[C@@H](C)CN1C(=O)OC(C)(C)C [Compound 506, tert-butyl (2R,5S)-4-(7-(4-chloropyridin-2-yl)-5-(trifluoromethyl)-7H-pyrrolo[2,3-d]pyrimidin-4-yl)-2,5-dimethylpiperazine-1-carboxylate]
- EC50 [1]: 500 to 2000 nM
- EC50 [2]: < 100 nM
- EC50 [3]: < 100 nM

SMILES: C[C@@H]1CN(c2ncnc3c2c(CC(F)(F)F)cn3-c2cc(C#N)ccn2)[C@@H](C)CN1C(=O)OC(C)(C)C [Compound 619]
- EC50 [1]: 500 to 2000 nM
- EC50 [2]: < 100 nM
- EC50 [3]: < 100 nM
